Measurements reported in patent US6596742B1, “Substituted 3-phenyl-5-alkoxy-1,3,4-oxadiazol-2-ones, their preparation and their use in medicaments” (Aventis Pharma Deutschland GmbH, priority 1999, dated 2003).

What was measured:
[1] = target: T1, hormone-sensitive lipase HSL (Rattus norvegicus, UniProt P15304); assay: HSL enzyme test system ([3H]trioleoylglycerol hydrolysis); assay type: biochemical; conditions: partially purified HSL from rat fat cells; [3H]trioleoylglycerol substrate; 37° C., 30 min
T1 construct: Isolated rat fat cells are obtained from epididymal fatty tissue from untreated male rats; from tissue; host or cells: fat cells from epididymal fatty tissue of male Wistar rats
T1 sequence (P15304 301-1068 limits assumed): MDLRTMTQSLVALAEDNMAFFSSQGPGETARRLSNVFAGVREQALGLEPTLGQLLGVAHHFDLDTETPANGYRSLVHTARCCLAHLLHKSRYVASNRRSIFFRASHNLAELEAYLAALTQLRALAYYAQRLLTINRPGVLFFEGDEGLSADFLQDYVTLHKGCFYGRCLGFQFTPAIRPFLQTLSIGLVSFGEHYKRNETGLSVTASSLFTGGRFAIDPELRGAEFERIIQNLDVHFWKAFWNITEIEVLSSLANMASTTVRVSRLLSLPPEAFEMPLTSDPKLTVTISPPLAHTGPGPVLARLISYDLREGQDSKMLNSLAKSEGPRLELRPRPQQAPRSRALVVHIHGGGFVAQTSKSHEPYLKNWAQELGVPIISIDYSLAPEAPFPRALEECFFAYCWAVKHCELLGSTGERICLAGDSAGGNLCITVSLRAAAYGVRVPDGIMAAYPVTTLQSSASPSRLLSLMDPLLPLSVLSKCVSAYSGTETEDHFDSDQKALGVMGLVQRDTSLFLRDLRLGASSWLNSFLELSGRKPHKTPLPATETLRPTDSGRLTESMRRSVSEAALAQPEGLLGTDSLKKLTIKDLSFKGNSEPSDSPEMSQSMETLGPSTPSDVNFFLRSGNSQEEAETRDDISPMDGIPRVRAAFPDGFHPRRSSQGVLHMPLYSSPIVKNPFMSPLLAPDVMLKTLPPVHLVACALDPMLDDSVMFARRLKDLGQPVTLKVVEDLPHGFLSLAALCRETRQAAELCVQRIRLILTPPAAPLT
Source text: The activity of the compounds of the formula 1 according to the invention was examined using the following enzyme test system:
Isolated rat fat cells are obtained from epididymal fatty tissue from untreated male rats (Wistar, 220-250 g) by collagenase treatment according to published processes (e.g. S. Nilsson et al., Anal. Biochem. 158, 1986, 399-407; G. Fredrikson et al., J. Biol. Chem. 256, 1981, 6311-6320; H. Tornquist et al., J. Biol. Chem. 251, 1976, 813-819). The fat cells from 10 rats are washed three times by flotation with 50 ml each of homogenization buffer ([…] tris/HCI, pH 7.4, 0.25 M sucrose, 1 mM EDTA, 1 mM DTT, 10 μg/ml of leupeptin, 10 μg/ml of antipain, 20 μg/ml of pepstatin) and finally taken up in 10 ml of homogenization buffer. The fat cells are homogenized in a Teflon-in-glass homogenizer (Braun-Melsungen) by 10 strokes at 1500 rpm and 15° C. The homogenizate is centrifuged (Sorvall SM24 tubes, 5000 rpm, 10 min, 4° C). The bottom layer between the overlying fatty layer and the pellet is removed and the centrifugation is repeated. The bottom layer resulting from this is centrifuged again (Sorvall SM24 tubes, 20,000 rpm, 45 min, 4° C). […] After incubation for 60 min at 4° C. (shake at intervals of 15 min), the batch is centrifuged (Sorvall SM24 tubes, 3000 rpm, 10 min, 4° C.). The supernatant is brought to pH 5.2 by addition of glacial acetic acid and incubated at 4° C. for 30 min. The precipitates are collected by centrifugation (Sorvall SS34, 12,000 rpm, 10 min, 4° C.) and suspended in 2.5 ml of 20 mM tris/HCl, pH 7.0, 1 mM EDTA, 65 mM NaCl, 13% sucrose, 1 mM DTT, 10 μg/ml of leupeptin/pepstatin/antipain. The suspension is dialyzed overnight at 4° C. against 25 mM tris/HCl, pH 7.4, 50% glycerol, 1 mM DTT, 10 μg/ml of leupeptin, pepstatin, antipain and then applied to a hydroxylapatite column (0.1 g per 1 ml of suspension, equilibrated with 10 mM potassium phosphate, pH 7.0, 30% glycerol, 1 mM DTT). The column is washed with four volumes of equilibration buffer at a flow rate of 20 to 30 ml/h. The HSL is eluted with a volume of equilibration buffer which contains 0.5 M potassium phosphate, then dialyzed (see above) and concentrated 5 to 10 times by ultrafiltration (Amicon Diaflo PM 10 filter) at 4° C. The partially purified HSL can be stored at −70° C. for 4 to 6 weeks.
For the preparation of the substrate, 25-50 μCi of [^3H]trioleoylglycerol (in toluene), 6.8 μMol of unlabeled trioleoylglycerol and 0.6 mg of phospholipids (phosphatidylcholine/phosphatidylinositol 3:1 w/v) are mixed, dried over N2 and then taken up in 2 ml of 0.1 M KPi (pH 7.0) by ultrasonic treatment (Branson 250, microtip, setting 1-2, 2×1 min at a 1 min interval). After addition of 1 ml KPi and fresh ultrasonic treatment (4×30 sec on ice at 30 sec intervals), 1 ml of 20% BSA (in KPi) is added (final concentration of trioleoylglycerol 1.7 mM). For the reaction, 100 μl of substrate solution are pipetted into 100 μl of HSL solution (HSL prepared as above, diluted in 20 mM KPi, pH 7.0, 1 mM EDTA, 1 mM DTT, 0.02% BSA, 20 μg/ml of pepstatin, 10 μg/ml of leupeptin) and incubated at 37° C. for 30 min. After addition of 3.25 ml of methanol/chloroform/heptane (10:9:7) and of 1.05 ml of 0.1 M K2CO3, 0.1 M boric acid (pH 10.5), the batch is well mixed and finally centrifuged (800×g, 20 min). After phase separation, one equivalent of the upper phase (1 ml) is taken and the radioactivity is determined by liquid scintillation measurement.
Substances are customarily tested in four independent batches. The inhibition of the enzymatic activity of the HSL by a test substance is determined by comparison with an uninhibited control reaction. The IC50 value is calculated by means of an inhibition curve using at least 10 concentrations of the test substance. For the analysis of the data, the software package GRAPHIT, Elsevier-BIOSOFT is used.

IC50 [1] [µM]	melting point [°C]	SMILES
15	–	CCOc1nn(-c2ccc(S(=O)(=O)N3CCOCC3)cc2)c(=O)o1 [Example 8, 3-(4-Morpholinosulfonylphenyl)-5-ethoxy-1,3,4-oxadiazol-2-one]
3	–	CCOc1nn(-c2cccc(Oc3ccccc3)c2)c(=O)o1 [Example 34, 3-(3-Phenoxyphenyl)-5-ethoxy-1,3,4-oxadiazol-2-one]
2	–	COc1nn(-c2ccc(S(=O)(=O)NC3CC(C)CC(C)(C)C3)cc2)c(=O)o1 (stereo not shown) [Example 15, 3-(4-(3,3,5-Trimethylcyclohexylaminosulfonyl)phenyl)-5-methoxy-1,3,4-oxadiazol-2-one]
10	–	CC(C)Oc1nn(-c2ccc(OC(F)(F)F)cc2)c(=O)o1 [Example 12, 3-(4-Trifluoromethoxyphenyl)-5-isopropoxy-1,3,4-oxadiazol-2-one]
< 1	–	COc1nn(-c2cccc(OC3CC(C)(C)CC(C)(C)C3)c2)c(=O)o1 [Example 38, 3-(3-(3,3,5,5-Tetramethylcyclohexyloxy)phenyl)-5-methoxy-1,3,4-oxadiazol-2-one]
6	–	COc1nn(-c2ccc(OC(F)(F)F)cc2)c(=O)o1 [Example 10, 3-(4-Trifluoromethoxyphenyl)-5-methoxy-1,3,4-oxad iazol-2-one]
5	–	CCOc1nn(-c2cccc(OC(F)(F)F)c2)c(=O)o1 [Example 19, 3-(3-Trifluoromethoxyphenyl)-5-ethoxy-1,3,4-oxadiazol-2-one]
2	–	CCOc1nn(-c2ccc(OC3CC(C)(C)CC(C)(C)C3)cc2)c(=O)o1 [Example 16, 3-(4-(3,3,5,5-Tetramethylcyclohexyloxy)phenyl)-5-ethoxy-1,3,4-oxadiazol-2-one]
60	–	COc1nn(-c2ccc(-c3ccccc3)cc2)c(=O)o1 [Example 39, 3-(4-Phenylphenyl)-5-methoxy-1,3,4-oxadiazol-2-one]
3	–	COc1nn(-c2ccc(C3CCCCC3)cc2)c(=O)o1 [Example 37, 3-(4-Cyclohexylphenyl)-5-methoxy-1,3,4-oxadiazol-2-one]
2	–	COc1nn(-c2cccc(OCc3ccccc3)c2)c(=O)o1 [Example 17, 3-(3-Benzyloxyphenyl)-5-methoxy-1,3,4-oxadiazol-2-one]
50	–	O=c1oc(OCc2ccccc2)nn1-c1ccc(OC(F)(F)F)cc1 [Example 14, 3-(4-Trifluoromethoxyphenyl)-5-benzyloxy-1,3,4-oxad iazol-2-one]
3	58	CC(C)Oc1nn(-c2cccc(Oc3ccccc3)c2)c(=O)o1 [Example 35, 3-(3-Phenoxyphenyl)-5-isopropoxy-1,3,4-oxadiazol-2-one]
< 1	–	CCOc1nn(-c2cccc(OCc3ccccc3)c2)c(=O)o1 [Example 18, 3-(3-Benzyloxyphenyl)-5-ethoxy-1,3,4-oxadiazol-2-one]
10	–	CCOc1nn(-c2ccc(OC(F)(F)F)cc2)c(=O)o1 [Example 11, 3-(4-Trifluoromethoxyphenyl)-5-ethoxy-1,3,4-oxadiazol-2-one]
4	–	COc1nn(-c2cccc(Oc3ccccc3)c2)c(=O)o1 [Example 33, 3-(3-Phenoxyphenyl)-5-methoxy-1,3,4-oxadiazol-2-one]

SMILES	IC50 [1] [µM]	melting point [°C]
COc1nn(-c2ccc(Oc3ccccc3)cc2)c(=O)o1 [Example 36, 3-(4-Phenoxyphenyl)-5-methoxy-1,3,4-oxadiazol-2-one]	2	–
CCCCOc1nn(-c2ccc(OC(F)(F)F)cc2)c(=O)o1 [Example 13, 3-(4-Trifluoromethoxyphenyl)-5-butoxy-1,3,4-oxadiazol-2-one]	10	–
